Assay: Human HepG2 cell viability assay in 384 well format
Type: toxicity, cell-based
Design: dose 125 nL, time 70.5 hour; concentration not given beside the values
Conditions: HepG2 cells, read-out: Inhibition

Compound	cytotoxicity at 70.5 h
Cc1noc(C)c1-c1cncc(C2CCCN2Cc2ccncc2)n1 (stereo unspecified)	-16.4%
CC(C)CCN1CC2(CCCN(C(=O)CNC(=O)N(C)C)C2)CCC1=O (stereo unspecified)	-10.1%
CCCn1nc(C(=O)N(C)Cc2cnn(C)c2)ccc1=O	0.0623%
O=C1CCNc2ncc(-c3cccc(Cl)c3)cc2CN1C1CC1	-1.89%
Cc1cccc(NC2CCc3c2[nH]c(=O)n(C2CCCCC2)c3=O)c1C (stereo unspecified)	-19.3%
CCOCC(=O)N1CCc2c(ncnc2N2CCOCC2)C1	-3.63%
O=C([C@H]1COC[C@H]2CN(c3ccncn3)C[C@H]21)N1CCCC1	13.9%
Cn1cc(C(=O)N2CCCN(c3cccnn3)CC2)c2ccccc21	-0.532%
Cc1cnc(C(=O)N2C[C@H]3CN(Cc4cccnc4)C[C@H]3C2)cn1	6.07%
Cc1cnn(CCNCc2csc(-c3ccco3)n2)c1	18%
CCn1nc(CNC(=O)C2CC(=O)N(C3CCCC3)C2)c2ccccc21 (stereo unspecified)	13.8%
C[C@H](O)CNc1cc(-c2cn[nH]c2)ncn1	6.37%
O=C(NCC1COC2(CCOCC2)O1)c1csc(-c2cccc(Cl)c2)n1 (stereo unspecified)	-20.8%
CC(C)[C@H]1CN(C2Cc3ccccc3C2)C[C@@H]1NS(C)(=O)=O	7.83%
CCn1cc(C(=O)N2CCCC3(CCC(=O)N(CCC(C)C)C3)C2)cn1 (stereo unspecified)	-5.07%
Cc1noc(C)c1CN1CC[C@H]2C[C@@H](c3nccs3)O[C@@H]2C1	-14.7%
Nc1ccnc(N2C[C@@H]3CC[C@H](C2)N(CC2CCC2)C3=O)n1	-3.52%
O=C1CC(c2ccccc2)c2cnn(C3CCCC3)c2N1 (stereo unspecified)	18.5%
Cc1ncc(CNc2ccc(C(=O)NCc3ccco3)cc2C)s1	1.95%

Compound	cytotoxicity at 70.5 h
CNc1snc(C)c1C(=O)N1CCCC(n2ccnc2)C1 (stereo unspecified)	-9.44%
c1ccc(Cn2ccnc2CNC2CCCOc3ccccc32)cc1 (stereo unspecified)	-6.62%
CCOCCN1CCn2c(C)nnc2C1	16.1%
COCCNC(=O)[C@@]12CCO[C@@H]1CCN(Cc1ccncc1)C2	-10.2%
Cn1ncc(C(=O)N2CCN(S(C)(=O)=O)CC2)c1Cl	20.9%
O=C(Nc1ccccc1Oc1cccc(F)c1)NC1CCS(=O)(=O)C1 (stereo unspecified)	2.26%
Cc1oc(C(=O)Nc2ccccc2F)cc1S(N)(=O)=O	-10.9%
CCO[C@H]1CO[C@@]2(CCCN(S(=O)(=O)c3cccnc3)C2)C1	-11.8%
O=C(c1sccc1-n1cnnn1)N1CCC2(CCCCC2)CC1	11.8%
CCc1n[nH]c(C2CN(C(=O)c3cc(C(N)=O)cs3)CCO2)n1 (stereo unspecified)	-12.1%
Cc1nc(CO[C@H]2CN(C(=O)c3cnoc3C)[C@@H]3COC[C@H]23)cs1	-3.09%
COC(=O)CN(C(=O)c1cccc(F)c1Cl)c1cccc(C)n1	1.83%
CC(=O)N1CCC(N2CC[C@H](c3nc4cc(C)ccc4o3)C2)CC1	-1.07%
COCCOc1ncccc1C(=O)Nc1c(C)cnn1CC1CC1	8.78%
CN(Cc1ccco1)C(=O)C1=NN(C)C(=O)CC1	-3.82%
CCc1nnc(CN(CC)C(=O)C(C)n2ccnc2C(C)C)o1 (stereo unspecified)	-5.37%
COc1cc(N2C[C@H]3CCC[C@@H](CN4CCCC4)[C@H]3C2)ncn1	-8.91%
Cc1cc(NC(=O)CCn2cncn2)no1	5.52%
CC(C)NC(=O)C(C)NC(=O)N1CCN(c2ccc(Cl)cc2)CC1 (stereo unspecified)	19%

Compound	cytotoxicity at 70.5 h
COCc1ncn2c1CN(C(=O)Nc1cccc(OC)c1)CC2	19.8%
CN(C)CCN1Cc2ncn(C)c2C(COCC(=O)N(C)C)C1 (stereo unspecified)	-8.47%
Cc1csc(N2CCCN(C(=O)c3occc3C)CC2)n1	1.54%
O=C(NCc1ccccc1-n1cccn1)N1CCN2CCCCC2C1 (stereo unspecified)	1.19%
CCSCCNc1nc(-c2ccccn2)nc2c1c(C)nn2C	2.98%
O=C(COCC1CC1)Nc1cc(S(=O)(=O)NC2CC2)ccc1F	-2.2%
O=C(CC1CC1)N1CCC2(CC1)CC(Oc1ccccc1)CO2 (stereo unspecified)	-4.92%
Cc1noc([C@H]2C[C@H]3OCC[C@H]3N(Cc3cccs3)C2)n1	-3.05%
COc1ccc(OCc2nc(C(=O)N3CCC(NC(C)=O)C3)co2)cc1 (stereo unspecified)	-1.19%
O=C1CCC(=O)N1CCOc1nc(-c2ccccc2Cl)no1	-77.6%
COc1ccc(CNC(=O)N2CCOCC2C2CC2)c(C)c1 (stereo unspecified)	-6.07%
COCCC1(CNC(=O)NC2CCCN(C)C2)CC1 (stereo unspecified)	0.563%
COc1ccc(N2CCC(N3C[C@H](NC(C)=O)[C@@H](C(C)C)C3)CC2)cc1	-7.18%
CC(=O)N(Cc1ncc(C)o1)C1CCN(CCc2ccncc2)C1 (stereo unspecified)	7.37%
COC[C@H]1CC[C@@H]2[C@@H](CCN2Cc2ccccn2)O1	22.1%
CCC(C)(C)C(=O)N1C[C@@H]2C[C@@H](c3nnc(C)[nH]3)O[C@@H]2C1	-8.87%
COc1cccc(CNCc2nnc3n2CC(C(F)(F)F)CC3)c1 (stereo unspecified)	6.13%
CCc1ncc2c(n1)CN(CC(=O)NCCOc1ccccc1)CC2	-5.27%

Reference: ChEMBL document CHEMBL3507680, “University of Dundee, Gates Library screen for HepG2 cell viability”
